The record followed here is patent US20030171598A1, “Aminoacid-iodine complex” (priority 2001, published 2003).

Molecules are shown by their SMILES.

The assay deals with vibrio splendidus. The settings on record: Penaeus vannamei pond. From the text: 600,000 of Penaeus vannamei were raised in a pond with 1.1M depth and 1.6 hectare. […] At the next night, the pond was sterilized using the product prepared according to Example 5 with the content of iodine of 0.01 ppm.

Take `CSCC[C@H](N)C(=O)O.I` [Example 5, methionine iodine]: the killing vibrio splendidus result (content of iodine 0.01 ppm) is listed as “very effective”. Also, under “sterilized at content of iodine of 0.01 ppm”, the “time after which glimmering in the pond has disappeared” value is 40 min.
